Data on 88 compounds can be found in ChEMBL document CHEMBL1157539, “Thousands of chemical starting points for antimalarial lead identification” (Nature, 2010).

The test system of this assay is Plasmodium falciparum. Nature of the assay: GSK_TCMDC: Inhibition of Plasmodium falciparum 3D7 in whole erythrocytes, using parasite LDH activity as an index of growth. Type of assay: functional, organism-based. Particulars: Plasmodium falciparum, 3D7.
Consider `CCOc1c(CNCCCNc2cc(O)c3ccccc3n2)cc(Br)cc1OC`, for which the XC50 stood at 1160 nM. The compound `COC(=O)C(C)(C)Cc1c(SC(C)(C)C)c2cc(C(C)C)ccc2n1Cc1ccc(Cl)cc1` displayed an XC50 of 849 nM. In the case of `CC1CCN(C(=O)CSc2nc(-c3ccc(C(C)C)cc3)no2)CC1`, the XC50 amounted to 1350 nM.

On to `CNC(=O)c1cnc(Nc2ccc(N3CCN(C)CC3)c(C)c2)nc1NC`, for which the XC50 was determined as 869 nM. Under `FC(F)(F)c1ccc2[nH]ccc(=NN=Cc3cccc(Cl)c3)c2c1` stands 825 nM; under `O=C(Nc1ccccc1)c1cccc(Nc2nccc(Nc3ccc(Oc4ccccc4)cc3)n2)c1`, 1550 nM. The compound `CN1CCN(CC(=O)Nc2cccc(-c3ccc(-c4nc5cc(C(F)(F)F)ccc5[nH]4)cc3)c2)CC1` came in with an XC50 of 520 nM. On to `CC(C)(C)c1ccc(CN2CCC(CNC(=O)c3cc(-c4ccccc4F)cs3)C2)cc1` (stereo not drawn), for which the XC50 came to 564 nM. Compound `COc1cccc2cc(C(=O)N[C@@H](CC(C)C)C(=O)NC(/C=N/NC(=O)c3ccccc3)CCc3ccccc3)oc12` (stereo partly drawn) gave an XC50 of 577 nM.

`CCc1c(CCNCCCCCCNCCc2ccc3c(c2C)OCO3)ccc2c1OCO2` gave an XC50 of 608 nM. On to `CSc1ccc(C[C@@H](C)NC[C@H](O)c2cccc(Cl)c2)cc1`, for which the XC50 is 940 nM. Take `COc1cc2c(cc1OC)-c1cc(=Nc3c(C)cc(C)cc3C)n(C)c(=O)n1CC2`: the XC50 was 1110 nM. The compound `COc1cc2cc(Cc3cnc(N)nc3N)ccc2c(OC)c1OC` returned an XC50 of 239 nM.

`NC(=O)c1ccccc1Nc1nc(Nc2cccc(N3CCN(CCO)CC3)c2)ncc1Cl` displayed an XC50 of 39.6 nM. Compound `O=C1c2ccccc2CCC1CCN1CC=C(c2c[nH]c3ccccc23)CC1` (stereo not drawn) came in with an XC50 of 697 nM.

In turn, `CCOc1ccc(-c2cc3nc(C4CCNCC4)c(C(=O)Nc4ccc(C)cc4Cl)cn3n2)cc1` returned an XC50 of 919 nM. As to `Cc1cccc2nc(-c3cccc(-c4ccc(NC(=O)COc5ccccc5C(N)=O)cc4)c3)[nH]c12`, the XC50 is 889 nM.

Compound `O=C(Nc1ccc(CCNCc2ccccc2)cc1)Nc1ccc(OC(F)(F)F)cc1` returned an XC50 of 584 nM. The figure for `COCn1ccc2c3c(N)nc(N)nc3ccc21` is 990 nM; for `Cc1cc(NC(=O)Nc2ccc(Cl)cc2F)c2ccccc2n1` it is 547 nM; for `Oc1cccc(CCNCCCCCCNCCc2ccc(Cl)cc2)c1` it is 774 nM. The compound `CCCc1cc(Cc2cnc(N)nc2N)ccc1OCCCCCC(=O)OCC` yielded an XC50 of 495 nM. The figure for `NC(=O)C1Cc2ccccc2CN1CC(=O)Nc1ccccc1Sc1ccccc1` (stereo not drawn) is 68.4 nM; for `Cc1cc(Nc2cccc(C(F)(F)F)c2)nc(N)n1` it is 790 nM; for `Oc1ccc(Nc2nc(NCc3ccccc3)c3ccccc3n2)cc1` it is 192 nM. `O=C(/C=C/c1ccc(Cl)c(Cl)c1)NC1CCC(CN2CCC(Cc3c[nH]c4ccccc34)CC2)CC1` (stereo not drawn) had an XC50 of 888 nM. Compound `Cc1ccc(C)c(NC(=O)Nc2ccc(Nc3nc(C)cc(N4CCOCC4)n3)cc2)c1` yielded an XC50 of 978 nM. The figure for `NCC(=O)Nc1cccc(Nc2nccc(-c3c(-c4cccc(NC(=O)c5ccccc5)c4)nn4ccccc34)n2)c1` is 432 nM; for `Cc1ccccc1C1CCN(C2CCC(NC(=O)C3=Cc4cc(Cl)ccc4OC3)CC2)CC1` (stereo not drawn) it is 889 nM; for `Cc1cccc2nc(-c3cccc(-c4ccc(NC(=O)CN5CCOCC5)cc4)c3)[nH]c12` it is 1050 nM. Take `Cn1nccc1C(=O)NCCNCc1cccc(-c2ccc(-c3nc4ccccc4[nH]3)cc2)c1`: the XC50 was 473 nM. The compound `CN1CCC(c2nc(N)no2)C1` (stereo not drawn) displayed an XC50 of 975 nM.

On to `O=C1Nc2cccc3c2C1(CCCCN1CCC(c2c(-c4ccc(F)cc4)[nH]c4ccccc24)CC1)CCC3` (stereo not drawn), for which the XC50 is 1190 nM. Turning to `Cc1noc(NC(=O)c2sc3ccccc3c2O)c1C`, the XC50 is 852 nM. For `COc1ccc(CNc2nc(NCCc3ccccc3)c3cc(OC)c(OC)cc3n2)cc1OC`, the XC50 came out at 180 nM. In turn, `Oc1ccc(-c2nc3c4cc(I)ccc4c4ccc(I)cc4c3[nH]2)cc1` had an XC50 of 972 nM. Consider `Cn1ccnc1CCC(=O)Nc1ccc(Cl)cc1C(=O)Nc1ccc(Cl)cc1`, for which the XC50 worked out at 1560 nM. As to `COc1cc(CN2CCN(c3ccnc(N(C)C4CCN(C)CC4)n3)CC2)cc(Cl)c1O`, the XC50 turned out to be 784 nM. With `COc1ccc2nc(-c3cc(-c4ccc(NC(=O)CN5CCOCC5)cc4)cnc3N)[nH]c2c1`, the XC50 worked out at 616 nM.

Turning to `O=C(Cc1cccs1)NCC(c1ccccc1Cl)c1c[nH]c2ccccc12` (stereo not drawn), the XC50 was 1150 nM.

`c1ccc2sc(Sc3ncnc4sccc34)nc2c1`: the XC50 was 734 nM. The compound `O=C(N[C@H]1CCN(Cc2ccc(OCCCN3CCCCC3)cc2)C1)c1cc(Cl)cc(Cl)c1` displayed an XC50 of 621 nM. Compound `Cc1cccc2nc(-c3cccc(-c4cccc(NC(=O)c5c[nH]cn5)c4)c3)[nH]c12` showed an XC50 of 258 nM. Compound `O=C(Nc1ccc(OC(F)(F)F)cc1)NC1CCN(c2ccnc3ccccc23)CC1` returned an XC50 of 297 nM. `COC(=O)c1cccc(CNCc2ccc(-c3ccc(-c4nc5cc(C(F)(F)F)ccc5[nH]4)s3)cc2)c1`: the XC50 turned out to be 157 nM. `Nc1c2c(nc3ccc(C(=O)Nc4cc(I)c(O)c(I)c4)cc13)CCCC2`: the XC50 was 1010 nM. The figure for `Cc1ccccc1C(O)CNc1ccnc(Nc2cccc(C#N)c2)n1` (stereo not drawn) is 875 nM.

With `Oc1ccccc1N1CCN(c2ccc(-c3nc4ccccc4[nH]3)cn2)CC1`, the XC50 came to 1130 nM. Consider `CCn1c(-c2nonc2N)nc2c(C#CC(C)(C)O)ncc(OCCNCCc3ccc(OC)cc3)c21`, for which the XC50 was 957 nM. Compound `O=S(=O)(Nc1ccc(CCN2CCC(N3CCCCC3)CC2)cc1)c1ccc(Cl)cc1` displayed an XC50 of 1090 nM. For `Cc1c(C(=O)N(C)C)sc2c1c(=O)n(Cc1ccccc1)c(=O)n2CC(=O)Nc1ccccc1F`, the XC50 turned out to be 657 nM.

Take `CC(C)c1ccc(-c2noc(SCC(=O)N3CCCCC3C)n2)cc1` (stereo not drawn): the XC50 was 1670 nM. Under `CCCCCC(C)NC[C@@H](O)[C@H](Cc1ccccc1)NC(=O)c1cc(NCC)cc(N2CCCCS2(=O)=O)c1` (stereo partly drawn) stands 398 nM.

As to `CN(N=Cc1ccccc1)C(=N)NCCCC#Cc1cccc(CN2CCCC2)c1`, the XC50 came out at 1790 nM. `FC(F)(F)c1cccc(Nc2nc(-c3ccccc3)nc3ncccc23)c1` returned an XC50 of 802 nM.

As for `Fc1ccc2[nH]c(-c3ccc(-c4ccc(CN5CCN(c6ccncc6)CC5)cc4)cc3)nc2c1`, the XC50 is 251 nM. `CC(C)c1sc(-c2ccc(C(C)(C)C)cc2)nc1C(=O)NCCCN1CCCC1=O` came in with an XC50 of 672 nM.

In turn, `O=C(N[C@@H](CC1CCCCC1)C(=O)NC1CCCCC1)c1ccc(O)c(-c2cccc(C(F)(F)F)c2)c1` gave an XC50 of 747 nM.

Compound `N=C(N)NN=Cc1ccc2ccc3ccccc3c2c1` yielded an XC50 of 376 nM. As to `Cn1c(=O)n(C)c2cc(CNCCNc3ccnc4cc(Cl)ccc34)ccc21`, the XC50 stood at 140 nM. For `CN1CCN(c2ccc(-c3cc(-c4ccncc4)c(-c4ccc(Cl)c(O)c4)o3)cc2)CC1`, the XC50 was found to be 737 nM. In turn, `C=CCn1c(Sc2ccc(C#N)c([N+](=O)[O-])c2)nnc1-c1ccc(OC)cc1` gave an XC50 of 795 nM. In turn, `Cc1cc(N2CCN(C)CC2)nc2ccc(NC(=O)Cc3cccc(C(F)(F)F)c3)cc12` had an XC50 of 737 nM. Consider `Cc1ccc2c(OCCN3CCC(Cc4cc5c(cc4F)OCC(=O)N5)CC3)cc(F)cc2n1`, for which the XC50 is 631 nM. Take `CC(C)C1C(O)=C(c2ccc3ccccc3c2)C(=O)N1Cc1cccc(F)c1` (stereo not drawn): the XC50 was found to be 812 nM. As to `OCCN1CCN(Cc2ccc(-c3cccc(-c4nc5cc(F)ccc5[nH]4)c3)cc2)CC1`, the XC50 was found to be 608 nM. In turn, `CN1CC=C(c2c[nH]c3ccc(Oc4ccccc4)cc23)CC1` yielded an XC50 of 253 nM. Under `CC(C)N(Cc1ccccc1)C(=O)CN1C(=O)COc2ccc(S(=O)(=O)N3CCCCCC3)cc21` stands 253 nM. `Cc1cc(Cl)c(S(=O)(=O)N2CCc3ccccc32)cc1OCC(=O)NC1CCCCC1`: the XC50 was found to be 302 nM. The compound `COc1ccc2ccccc2c1CON1C(=N)N=C(N)NC1(C)C` registered an XC50 of 28.8 nM.

`COc1ccc(NC(=O)C2c3ccccc3C(=O)N(C3CCCC3)C2c2cccs2)cc1OC` (stereo not drawn): the XC50 was found to be 1090 nM. Under `CCOc1cc(C2C(C(=O)OC(C)C)=C(C)NC3=C2C(=O)CC(c2ccc(Cl)cc2)C3)ccc1OC(C)=O` (stereo not drawn) stands 932 nM; under `COc1ccccc1N=C1SC(=Cc2cn(CC(=O)N3CCCc4ccccc43)c3ccccc23)C(=O)N1C1CCCCC1`, 28.9 nM.

Compound `O=C(C=Cc1ccc(F)cc1)N1CCN(S(=O)(=O)c2ccc(Cl)cc2)CC1` had an XC50 of 634 nM. Compound `COCCOc1ccc(C(F)(F)F)cc1NC(=O)Cc1c(F)cccc1Cl` registered an XC50 of 1000 nM. As for `Cc1cccc2nc(-c3ccc(-c4cccc(C(=O)NCCc5cn(C)cn5)c4)s3)[nH]c12`, the XC50 is 877 nM.

As for `O=C(NC1CCCCN(Cc2ccccc2O)C1)c1ccc(-c2ccccc2)cc1` (stereo not drawn), the XC50 is 759 nM. Compound `O=C(/C=C/c1cc(F)cc(C(F)(F)F)c1)N1CCC(CN2CCC(c3c[nH]c4ccccc34)CC2)CC1` showed an XC50 of 756 nM. `CC(CN1CCN(C)CC1)C(=O)Nc1ccc(-c2cccc(-c3nc4cc(C(F)(F)F)ccc4[nH]3)c2)cc1` (stereo not drawn) displayed an XC50 of 403 nM. Consider `COc1ccc(CN2CCCC(N3CC4(OC3=O)c3ccccc3-c3ccccc34)C2)c(O)c1` (stereo not drawn), for which the XC50 was 873 nM. The figure for `CCCCC(CC)C(=O)C(NC(=O)[C@H](CSC(c1ccccc1)(c1ccccc1)c1ccccc1)NC(=O)OC(C)(C)C)C(=O)OC` (stereo partly drawn) is 1020 nM; for `COc1ccc(-c2nc(NC(=O)Cc3ccc(OC)c(OC)c3)sc2C)cc1` it is 1160 nM; for `CCC(=O)N(c1ccccc1)C1CCN(CCCC(NC(=O)Nc2cc(C(F)(F)F)cc(C(F)(F)F)c2)c2ccc(Cl)c(Cl)c2)CC1` (stereo not drawn) it is 672 nM. In the case of `COc1ccc2ncc(Cl)c(NCC3(O)CCC(NCc4ccc5c(n4)NC(=O)CS5)CC3)c2n1` (stereo not drawn), the XC50 is 597 nM. The compound `CC(=O)Nc1ccc(C(=O)Nc2ccc(-c3cccc(-c4nc5ccccc5[nH]4)c3)cc2)cn1` displayed an XC50 of 238 nM. As for `Cc1onc(-c2c(Cl)cccc2Cl)c1C(=O)NC1=NC(C)(C)ON1c1ccccc1`, the XC50 amounted to 1070 nM. Under `CCCCOc1c(CNCCCCCCNCc2ccc3ccccc3c2OCCCC)ccc2ccccc12` stands 869 nM; under `CC1CCN(Cc2ccc(NC(=O)c3cc4ccc5cccnc5c4[nH]3)cc2)CC1`, 779 nM.
